Experimental data: PMC12250965, “Design and Synthesis of Sulfonium and Selenonium Derivatives Bearing 3′,5′-O-Benzylidene Acetal Side Chain Structure as Potent α-Glucosidase Inhibitors” (Molecules, 2025)
Entries after “also recorded” stand apart in the source; their conditions may differ. Where two headings read alike, the source gives them in different places.

Assays:
rat intestinal maltase [1] = experiment: In vitro α-glucosidase inhibition assay, rat intestinal maltase; format: biochemical; details: for IC50: rat small intestinal brush border membrane vesicles, maltose substrate, mean ± SD (n = 3), read-out: IC50 against maltase
Description: (§1) The testing method previously described was modified and used. Thus, rat small intestinal brush border membrane vesicles were first prepared, and its suspension in 0.1 M maleate buffer (pH = 6.0) was used as small intestinal α-glucosidases of maltase and sucrase. A test compound was dissolved in dimethylsulfoxide (DMSO), and the resulting solution was diluted with 0.1 M maleate buffer to prepare the test compound solution (concentration of DMSO: 10%). The substrate solution in maleate buffer ([…], 50 μL), a test compound solution (25 μL), and the enzyme solution (25 μL) were mixed and incubated at 37 °C for 30 min. After incubation, the solution was immediately heated by boiling water for 2 min to stop the reaction, and the solution was mixed with water (150 μL). Glucose concentration was determined by the glucose-oxidase method. […] The IC50 value was determined graphically by a plot of percent inhibition versus log of the test compound.

rat intestinal sucrase [2] = target: T1, rat intestinal sucrase (Rattus norvegicus, UniProt P23739); experiment: In vitro α-glucosidase inhibition assay, rat intestinal sucrase; format: biochemical
T1 construct: rat small intestinal brush border membrane vesicles were first prepared; from tissue; host or cells: rat small intestine, brush border membrane vesicles
T1 sequence (P23739 whole entry): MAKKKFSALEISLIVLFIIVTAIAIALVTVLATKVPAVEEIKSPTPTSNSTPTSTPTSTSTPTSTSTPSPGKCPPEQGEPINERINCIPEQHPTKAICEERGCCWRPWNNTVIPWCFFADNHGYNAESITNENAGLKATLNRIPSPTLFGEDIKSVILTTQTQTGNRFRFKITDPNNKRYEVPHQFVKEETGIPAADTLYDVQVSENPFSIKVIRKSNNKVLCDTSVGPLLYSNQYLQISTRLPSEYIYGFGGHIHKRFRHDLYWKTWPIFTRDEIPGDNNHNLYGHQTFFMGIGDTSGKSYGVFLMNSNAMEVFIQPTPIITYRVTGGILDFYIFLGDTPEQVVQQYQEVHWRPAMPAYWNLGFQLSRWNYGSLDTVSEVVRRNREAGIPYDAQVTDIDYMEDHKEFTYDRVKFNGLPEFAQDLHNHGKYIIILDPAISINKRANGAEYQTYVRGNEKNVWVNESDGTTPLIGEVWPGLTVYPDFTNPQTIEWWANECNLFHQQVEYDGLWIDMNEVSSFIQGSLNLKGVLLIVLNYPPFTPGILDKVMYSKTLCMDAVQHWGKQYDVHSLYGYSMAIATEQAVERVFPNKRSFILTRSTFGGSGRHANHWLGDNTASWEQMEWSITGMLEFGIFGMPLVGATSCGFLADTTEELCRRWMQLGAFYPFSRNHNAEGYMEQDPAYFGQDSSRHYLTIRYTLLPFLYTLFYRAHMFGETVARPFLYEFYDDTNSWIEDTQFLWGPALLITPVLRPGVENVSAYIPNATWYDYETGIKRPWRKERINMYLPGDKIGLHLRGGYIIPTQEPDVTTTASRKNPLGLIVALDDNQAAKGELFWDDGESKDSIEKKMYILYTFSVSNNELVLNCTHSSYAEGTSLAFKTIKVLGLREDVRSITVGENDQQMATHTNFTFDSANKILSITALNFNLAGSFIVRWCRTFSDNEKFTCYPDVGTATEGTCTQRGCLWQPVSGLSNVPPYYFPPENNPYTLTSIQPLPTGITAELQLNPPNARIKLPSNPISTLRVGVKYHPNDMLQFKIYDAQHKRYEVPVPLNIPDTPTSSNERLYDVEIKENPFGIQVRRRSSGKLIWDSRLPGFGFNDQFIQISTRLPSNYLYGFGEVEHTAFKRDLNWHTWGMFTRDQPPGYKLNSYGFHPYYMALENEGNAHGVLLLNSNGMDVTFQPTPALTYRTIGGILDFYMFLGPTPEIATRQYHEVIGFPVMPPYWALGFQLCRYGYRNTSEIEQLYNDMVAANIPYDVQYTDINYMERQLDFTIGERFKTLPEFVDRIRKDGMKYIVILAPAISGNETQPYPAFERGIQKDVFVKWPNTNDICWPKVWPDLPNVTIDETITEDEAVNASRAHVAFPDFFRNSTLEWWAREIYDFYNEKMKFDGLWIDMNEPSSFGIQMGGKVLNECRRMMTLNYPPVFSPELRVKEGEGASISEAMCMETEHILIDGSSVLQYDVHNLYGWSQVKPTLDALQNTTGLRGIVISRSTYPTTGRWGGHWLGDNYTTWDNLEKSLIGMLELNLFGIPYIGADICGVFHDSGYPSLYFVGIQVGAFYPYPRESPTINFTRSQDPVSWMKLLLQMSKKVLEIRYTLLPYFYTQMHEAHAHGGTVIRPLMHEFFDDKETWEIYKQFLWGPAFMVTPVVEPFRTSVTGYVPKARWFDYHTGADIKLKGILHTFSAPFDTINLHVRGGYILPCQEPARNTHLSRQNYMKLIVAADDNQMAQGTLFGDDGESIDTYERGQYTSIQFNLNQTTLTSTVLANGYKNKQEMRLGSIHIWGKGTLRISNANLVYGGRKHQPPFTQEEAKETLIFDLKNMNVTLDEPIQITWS
Description: as §1

rat intestinal maltase [3] = details: read-out: IC50 against maltase (converted), cited from earlier work
rat intestinal sucrase [4] = target: T1, rat intestinal sucrase; details: read-out: IC50 against sucrase (converted), cited from earlier work
rat intestinal maltase [5] = experiment: Inhibition-kinetic study (Lineweaver–Burk), maltase; format: biochemical; details: for type of inhibition, maltase: Lineweaver–Burk plots; for Ki Maltase (Km = 3.0 mM): small intestinal α-glucosidase, Lineweaver–Burk
Description: (§2) In order to explore the inhibitory mechanism of the α-glucosidase by this family of compounds, enzyme kinetic assays were conducted on 20a, 20c, and 10, followed by a detailed kinetic analysis using the Lineweaver–Burk plots. (Figure 3) The small intestinal brush border membrane vesicles were incubated with varying concentrations of maltose (3.27 mg/mL) for maltase assays and sucrose (52.37 mg/mL) for sucrase assays.
(§3) For kinetic analyses of maltase and sucrase by compounds (20a, 20c, and 10), the enzyme and test samples (1.0 mg/mL for maltase and 0.2 mg/mL for sucrase) were incubated with increasing concentrations of maltose (2.5, 5, 10, 20, 50, 100 μM) and sucrose (5, 10, 20, 50, 100, 1000 μM) at 37 °C for 30 min. The tube was immediately immersed in boiling water for 2 min to stop the reaction, then cooled with water. The glucose concentration was determined by the glucose-oxidase method. […] The Lineweaver–Burk equation follows as: 1/V=Km/Vmax×[…]
(§4) Ki values for each inhibitor were determined by the equation: Ki=[I]×Km/[[…]−Km]

maltose-loaded mice = experiment: Maltose loading test (hypoglycemic effect); format: in vivo, ICR mice; details: maltose loading 2.0 g/kg, 1.0 mpk
Description: A maltose loading test on compounds 10, 20c, neoponkoranol, and positive control (voglibose) was conducted to further evaluate their in vivo hypoglycemic effects against maltase.
The animal experimental protocols in this study were approved by the Experimental Animal Center of Shanghai Institute of Materia Medica (Shanghai, China). Male ICR (Institute of Cancer Research) mice (29−33 g) after an overnight fast were used for acute maltose and sucrose loading tests. […] A control group was loaded with distillation−distillation water. In the sucrose loading test, sucrose (2.5 g/kg of body weight) and the inhibitor miglitol were dissolved in distillation−distillation water and administered to the mice via a stomach tube. A control group was loaded with distillation−distillation water. Blood samples for glucose measurements were obtained from the tail vein at 0, 15, 30, 60, and 120 min after maltose and sucrose loading. The blood glucose levels were measured by a portable kit, StatStrip Xpress (Nova Biomedical Co., Ltd., Waltham, MA, USA). The AUC over was calculated by the trapezoidal method.

rat intestinal sucrase [6] = target: T1, rat intestinal sucrase; experiment: Inhibition-kinetic study (Lineweaver–Burk), sucrase; format: biochemical; details: for type of inhibition, sucrase: Lineweaver–Burk plots
Description: as §2, §3, §4

[7] = test system: HELF, a human embryonic lung fibroblast cell line; experiment: MTT cytotoxicity assay on HELF cells; format: cell-based; details: for IC50: Homo sapiens, HELF, read-out: IC50 against normal cell line HELF; for cytotoxicity (MTT assay): different cell lines
Description: (§5) The cytotoxicity of selected sulfonium salts (20a, 20c, and 10) was then evaluated via the 3-[4,5-dimethylthiazol-2-yl]-2,5-diphenyl-tetrazolium bromide (MTT) assay against different cell lines.
Briefly, the HELF-adherent cells were cultured in a 96-well plate overnight in a CO2 environment at 37 °C. Supernatant was removed, and 100 μL serially diluted compounds with complete medium DMEM supplemented with 10% (v/v) fetal bovine serum, penicillin (100 units/mL), and streptomycin (100 μg/mL) were added to each well. After the incubation, the culture medium was aspirated carefully, and 50 μL of MTT solution (2mg/mL PBS) was added to each well and further incubated for 4h. After this, MTT solution was aspirated, and cells were PBS-washed once, and 100 μL of DMSO was added to dissolve the blue insoluble MTT formazan produced by the action of mitochondrial dehydrogenase. The plate was agitated at room temperature for 15 min and then read at 570 nm by using a microplate reader. The percentage of viable cells was calculated as the relative ratio of optical densities.

sucrose-loaded mice = experiment: Sucrose loading test (hypoglycemic effect); format: in vivo, ICR mice; details: sucrose loading […] p.o.
Description: Research has shown a strong association between the 2 h postprandial blood glucose level and the risk of cardiovascular events, diabetic microvascular complications such as retinopathy, and the progression of macrovascular diseases. […] Considering this underlying pathological process, α-glucosidase inhibitors, which efficiently regulate postprandial glucose fluctuations, hold significant therapeutic promise for alleviating diabetes-related complications. […] Subsequently, doses were reduced to 1.0 mg/kg.
The animal experimental protocols in this study were approved by the Experimental Animal Center of Shanghai Institute of Materia Medica (Shanghai, China). Male ICR (Institute of Cancer Research) mice (29−33 g) after an overnight fast were used for acute maltose and sucrose loading tests. In the maltose loading test, maltose ([…] of body weight) and the inhibitors and voglibose were dissolved in distillation−distillation water and administered to the mice via a stomach tube. A control group was loaded with distillation−distillation water. In the sucrose loading test, sucrose (2.5 g/kg of body weight) and the inhibitor miglitol were dissolved in distillation−distillation water and administered to the mice via a stomach tube. A control group was loaded with distillation−distillation water. Blood samples for glucose measurements were obtained from the tail vein at 0, 15, 30, 60, and 120 min after maltose and sucrose loading. The blood glucose levels were measured by a portable kit, StatStrip Xpress (Nova Biomedical Co., Ltd., Waltham, MA, USA). The AUC over was calculated by the trapezoidal method.

LO2 = experiment: Cytotoxicity against normal cell line LO2; format: cell-based; details: Homo sapiens, L02
Description: as §5
(§6) Compounds HELF LO2 Primary Hepatocyte
(§7) (1 picture or pasted object on this page, not shown here)

Primary Hepatocyte = experiment: Cytotoxicity against Primary Hepatocyte; format: cell-based
Description: as §5, §6, §7

[8] = rat small intestinal brush border membrane vesicles, sucrose substrate, mean ± SD (n = 3), read-out: IC50 against sucrase

SMILES	IC50 (rat intestinal maltase [1])	IC50 (rat intestinal sucrase [2]; [8])	type of inhibition, maltase (rat intestinal maltase [5])	Ki Maltase (Km = 3.0 mM) (rat intestinal maltase [5])	IC50 (rat intestinal sucrase [2])	Declined Rate of Blood Glucose Levels, 60 min (maltose-loaded mice; 1 mg/kg)	Declined Rate of AUC (maltose-loaded mice; 1 mg/kg)	Ki (rat intestinal sucrase [6])	type of inhibition, sucrase (rat intestinal sucrase [6])	IC50 [7]	cytotoxicity (MTT assay) [7]	Declined Rate of Blood Glucose Levels, 15 min (sucrose-loaded mice; 1.0 mpk)	Declined Rate of Blood Glucose Levels, 30 min (sucrose-loaded mice; 1.0 mpk)	Declined Rate of Blood Glucose Levels, 60 min (sucrose-loaded mice; 1.0 mpk)	Declined Rate of AUC (sucrose-loaded mice; 1.0 mpk)	IC50 (LO2)	IC50 (Primary Hepatocyte)	other results
OCC1C(O)C(O)C[S+]1CC(O)C1OC(c2ccccc2F)OCC1O [19n, 1,4-Dideoxy-1,4-{(R)-[5-deoxy-1,3-O-(o-fluorophenylmethylene)-D-arabinitol-5-yl]episulfoniumylidene}-D-arabinitol chloride]	420 nM	550 nM	–	–	–	–	–	–	–	–	–	–	–	–	–	–	–	IC50 (rat intestinal maltase [3]; literature value): 400 nM; IC50 (rat intestinal sucrase [4]; literature value): 840 nM
OC[C@@H]1[C@@H](O)[C@H](O)C[Se@+]1C[C@@H](O)[C@H]1OC(c2cc(Cl)ccc2Cl)OC[C@H]1O.[Cl-] (stereo partly drawn) [20c, (1S,2R,3S,4S)-1-((2S)-2-((4S,5R)-2-(2,5-Dichlorophenyl)-5-hydroxy-1,3-dioxan-4-yl)-2-hydroxyethyl)-3,4-dihydroxy-2-(hydroxymethyl)tetrahydro-1H-selenophen-1-ium chloride]	140 ± 50 nM	–	fully competitive	0.67 µg/mL	50 ± 20 nM	43.5%	40.2%	381 nM	fully competitive	> 500000 nM	low toxicity; also recorded: non-toxic	40.0%	40.3%	38.2%	34.00%	> 500000 nM	> 500000 nM	fold greater potency than acarbose, maltase (rat intestinal maltase [1]; IC50 ratio vs acarbose): 25 fold; fold greater potency than acarbose, sucrase (rat intestinal sucrase [2]; IC50 ratio vs acarbose): 44 fold; Declined Rate of Blood Glucose Levels, 15 min (maltose-loaded mice): 45.8%; Declined Rate of Blood Glucose Levels, 30 min (maltose-loaded mice): 47.4%; Declined Rate of Blood Glucose Levels, 15 min (sucrose-loaded mice; 10.0 mpk, 10 mg/kg): 48.6%; Declined Rate of Blood Glucose Levels, 30 min (sucrose-loaded mice; 10.0 mpk, 10 mg/kg): 52.8%; Declined Rate of Blood Glucose Levels, 60 min (sucrose-loaded mice; 10.0 mpk, 10 mg/kg): 48.1%; Declined Rate of AUC (sucrose-loaded mice; 10.0 mpk, 10 mg/kg): 46.4%
OC[C@@H]1[C@@H](O)[C@H](O)C[Se@+]1C[C@@H](O)[C@H]1OC(c2cccc(Cl)c2Cl)OC[C@H]1O.[Cl-] (stereo partly drawn) [20a, (1S,2R,3S,4S)-1-((2S)-2-((4S,5R)-2-(2,3-Dichlorophenyl)-5-hydroxy-1,3-dioxan-4-yl)-2-hydroxyethyl)-3,4-dihydroxy-2-(hydroxymethyl)tetrahydro-1H-selenophen-1-ium chloride]	330 ± 150 nM	–	fully competitive	0.94 µg/mL	190 ± 20 nM	–	–	934 nM	fully competitive	> 500000 nM	non-toxic	–	–	–	–	> 500000 nM	> 500000 nM	–
OC[C@@H]1[C@@H](O)[C@H](O)C[S@@+]1C[C@@H](O)[C@@H](O)[C@H](O)[C@@H](O)CO [neoponkoranol]	7300 ± 1500 nM	2800 ± 500 nM	–	–	–	19.4%	21.5%	–	–	–	–	33.5%	36.4%	27.1%	27.1%	–	–	Declined Rate of Blood Glucose Levels, 15 min (maltose-loaded mice; 1 mg/kg): 42.3%; Declined Rate of Blood Glucose Levels, 30 min (maltose-loaded mice; 1 mg/kg): 33.9%; IC50 (rat intestinal maltase [3]; literature value ^[a]): 6900 nM; IC50 (rat intestinal sucrase [4]; literature value ^[a]): 2300 nM; Declined Rate of Blood Glucose Levels, 15 min (sucrose-loaded mice; 10.0 mpk): 42.8%; Declined Rate of Blood Glucose Levels, 30 min (sucrose-loaded mice; 10.0 mpk): 49.5%; Declined Rate of Blood Glucose Levels, 60 min (sucrose-loaded mice; 10.0 mpk): 43.5%; Declined Rate of AUC (sucrose-loaded mice; 10.0 mpk): 39.4%
